Source: patent US11753489B2, “Nanoparticles using anionic polymer, preparation method and composition thereof” (IMGT CO, LTD., priority 2020, dated 2023)
Counter-ions that a name gives are not always drawn.

System: Huh7 liver cancer cells
Experiment: in vitro cytotoxicity evaluation (viability analysis)
Type: cell-based
Conditions: FIG. 7
Procedure: Viability analysis was performed on Huh7 liver cancer cells to evaluate the toxicity of the prepared nanoparticles. Three groups were evaluated: doxorubicin hydrochloride (dox), particles loaded with doxorubicin (032d), and particles not loaded with doxorubicin (032).

With `COc1cccc2c1C(=O)c1c(O)c3c(c(O)c1C2=O)C[C@@](O)(C(=O)CO)C[C@@H]3O[C@H]1C[C@H](N)[C@H](O)[C@H](C)O1` [doxorubicin hydrochloride] the “cell viability / cancer cell killing effect” value was “cancer cell killing effect in a concentration-dependent manner”.
